Where no end group is shown, it is not given here.
Key:
[1] = test system: hepatitis B virus (HBV) ayw strain; experiment: HBV assay in HepG2-2.2.15 cells (TaqMan PCR of secreted HBV DNA); format: cell-based; conditions: 10 micrograms per ml, six days
Description: HepG2-2.2.15 is a stable cell line containing the hepatitis B virus (HBV) ayw strain genome (ATCC Cat. No. CRL-11997). Antiviral compounds blocking any late step of viral replication such as transcription, translation, pregenome encapsidation, reverse transcription, particle assembly and release can be identified and characterized using this cell line. In this assay, an active compound will reduce the production of secreted HBV from cells, measured by utilizing real time quantitative PCR (TaqMan) assay to directly and accurately measure HBV DNA copies.
HepG2-2.2.15 cells were plated in 96-well microtiter plates. After 16-24 hours the confluent monolayer of HepG2-2.2.15 cells was washed and the medium was replaced with complete medium containing test peptides-10 micrograms per ml-in duplicate. […] Six days following the initial administration of the peptides, the cell culture supernatants was collected, treated with pronase and DNAse and then used in a real-time quantitative TaqMan PCR assay. The PCR-amplified HBV DNA was detected in real-time by monitoring increases in fluorescence signals that result from the exonucleolytic degradation of a quenched fluorescence probe molecule that hybridizes to the mplified HBV DNA. […] Antiviral activity was calculated from the reduction in HBV DNA levels (% virus control). […]

[2] = test system: Primary Human endothelial cells (HUVEC); experiment: Endothelial cell migration assay; format: cell-based; conditions: 10 micrograms per ml, 22 hours
Procedure: Thereafter, designated concentration of testing peptides-10 micrograms per ml-was added in duplicate wells.

Interleukin-4 (IL-4) = experiment: Th1/Th2 cytokine profiling assay: IL-4; format: cell-based, Balb/c mice; conditions: 10 micrograms per ml; Ovalbumin-restimulated spleen cells, 72 hours
Procedure: (§1) On day 50, spleens of the mice were harvested (3 weeks after last boost with Ovalbumin). Cells were cultured (2×10^5/well in triplicate) and incubated with culture medium or test peptides-10 micrograms per ml-for 30 min. Thereafter, additional Ovalbumin was added to the cells at 10 micrograms/ml for in vitro restimulation of the cells. 72 hours later, cell supernatants were harvested and assayed using the Becton Dickinson Mouse Th1/Th2 Cytokine CBA Kit.

[3] = test system: Tumor Necrosis Factor-α (TNF-α); experiment: Th1/Th2 cytokine profiling assay: TNF-alpha; format: cell-based, Balb/c mice; conditions: 10 micrograms per ml; Ovalbumin-restimulated spleen cells, 72 hours
Procedure: as §1

Interferon-γ (IFN-γ) = experiment: Th1/Th2 cytokine profiling assay: IFN-gamma; format: cell-based, Balb/c mice; conditions: 10 micrograms per ml; Ovalbumin-restimulated spleen cells, 72 hours
Procedure: as §1

HCMV strain AD169 = experiment: HCMV plaque formation assay in MRC-5 cells; conditions: for inhibition of HCMV plaque formation as compared to the virus control experiment: 10 micrograms per ml, 7-10 days
Interleukin-5 (IL-5) = experiment: Th1/Th2 cytokine profiling assay: IL-5; format: cell-based, Balb/c mice; conditions: 10 micrograms per ml; Ovalbumin-restimulated spleen cells, 72 hours
Procedure: as §1

HUVEC = experiment: Endothelial tube formation assay; format: cell-based, human; conditions: 10 micrograms per ml, 20 hours
Description: Positive control was vehicle only.

Interleukin-2 (IL-2) = experiment: Th1/Th2 cytokine profiling assay: IL-2; format: cell-based, Balb/c mice; conditions: 10 micrograms per ml; Ovalbumin-restimulated spleen cells, 72 hours
Procedure: as §1

HIV-1IIIB = experiment: HIV-1 antiviral assay in CEM-SS cells (MTS readout); format: cell-based

Row | Molecule | inhibition of HBV replication as compared to the virus control infection [1] | inhibition of the migration of human endothelial cells [2] [%] | decrease of the production of IL-4 in murine spleen cells (Interleukin-4 (IL-4)) | change of the production of TNF-alpha in murine spleen cells [3] | change of the production of IFN-gamma in murine spleen cells (Interferon-γ (IFN-γ)) | inhibition of HCMV plaque formation as compared to the virus control experiment (HCMV strain AD169) | decrease of the production of IL-5 in murine spleen cells (Interleukin-5 (IL-5)) | inhibition of the tube formation of human endothelial cells (HUVEC) [%] | decrease of the production of IL-2 in murine spleen cells (Interleukin-2 (IL-2)) | antiviral activity of positive control compounds (HIV-1IIIB) | antiviral activity of positive control compound (HCMV strain AD169; positive control, HCMV AD169)
1 | Cys-Tyr-Cys-Arg-Ile-Pro-Ala-Cys-Ile-Ala-Gly-Glu-Arg-Arg-Tyr-Gly-Thr-Cys-Ile-Tyr-Gln-Gly-Arg-Leu-Trp-Ala-Phe-Cys-Cys-OH (CYCRIPACIAGERRYGTCIYQGRLWAFCC-OH; cysteine pairing not given here) [Peptide 1] | did not inhibit | 17 | 49.4% | did not significantly change | did not significantly change | did not inhibit | 38.4% | 21 | 100% | – | –
2 | CC(C)(C)NC(=O)[C@@H]1CN(Cc2cccnc2)CCN1C[C@@H](O)C[C@@H](Cc1ccccc1)C(=O)N[C@H]1c2ccccc2C[C@H]1O [indinavir] | – | – | – | – | – | – | – | – | – | expected levels of antiviral activity | –
3 | Cc1cn([C@H]2C[C@H](N=[N+]=[N-])[C@@H](CO)O2)c(=O)[nH]c1=O [AZT] | – | – | – | – | – | – | – | – | – | expected levels of antiviral activity | –
4 | Nc1nc(O)c2ncn(COC(CO)CO)c2n1 [Ganciclovir, reference compound] | – | – | – | – | – | – | – | – | – | – | expected levels of antiviral activity
5 | Ser-Glu-Ile-Trp-Arg-Asp-Ile-Asp-Phe-OH (SEIWRDIDF-OH) [Peptide 2] | 21.6% | 18 | did not significantly change | did not significantly change | did not significantly change | did not inhibit | did not significantly change | 19 | did not significantly change | – | –
